Assay results reported in US12667735B2, “Methods for reducing pain during photodynamic therapy of actinic keratosis” (Sun Pharmaceutical Industries, Inc., priority 2019, dated 2026).
Where “and” joins values, the source holds several entries; their conditions need not be identical. Equal entries are not always repeated. Entries after “also recorded” stand apart in the source; their conditions may differ.

Assays:
[1] = Daily home questionnaire of side effects, first 4 days after PDT; type: in vivo, human; settings: for Pain Score Mean (0-10 visual-analog scale): average of 23 patients
Experimental: (§1) Several secondary endpoints were also measured. For pain assessment, patients were asked every 5 to 10 min during illumination to report their pain on a 0 to 10 visual-analog (VAS) scale. Erythema was recorded photographically at Day 1 and on Day 4 post PDT. A side effect profile was recorded by each patient in a daily home questionnaire to document the presence or absence of eleven different signs and symptoms in the 4 days immediately following PDT (see Table 2).

[2] = Pain during blue light illumination (0 to 10 VAS); type: in vivo, human; settings: for Pain score (0-to-10 VAS) during illumination / Pain score (0-to-10 VAS) during illumination, Mean: individual patients; for Pain score (0-to-10 VAS) during illumination, Mean: mean over time points; for Mean VAS pain score during illumination: all 23 patients, linear mixed-effect model, 0-10 scale
Experimental: The term “Visual Analogue Scale for Pain (referred to as VAS pain score hereafter) as used herein, is defined as follows: An 11-point numerical pain scale wherein patients report a number (from 0 to 10) that most closely reflects the level of pain they are experiencing at that particular moment; 0 corresponds to no pain and 10 corresponds to the worst pain imaginable (Breivik, HaraldScandinavian Journal of Pain 2016; 11:150-152).
as §1
The primary endpoint was AK lesion reduction. […] Statistical significance was considered with a p-value <0.05.

[3] = Erythema after PDT, recorded photographically; type: in vivo, human; settings: 1-4 days after PDT; majority of patients
Experimental: as §1

[4] = system: actinic keratoses (AK) lesions of face and scalp; experiment: AK lesion clearance, bilaterally controlled randomized clinical trial of ALA blue light PDT

NCC(=O)CCC(=O)O [ALA, 5-aminolevulinic acid]
Peeling ([1]; Side B (control PDT), DAY 3): 26 percentage of patients
Redness ([1]; Side B (control PDT), DAY 3): 87 percentage of patients
Stinging ([1]; Side B (control PDT), DAY 3): 39, 39 percentage of patients
Swelling ([1]; Side B (control PDT), DAY 3): 13 percentage of patients
Pain Score Mean (0-10 visual-analog scale) ([1]; Side B (control PDT), DAY 3): 1.5
Bleeding ([1]; Side B (control PDT), DAY 4): 13 percentage of patients
Blisters ([1]; Side B (control PDT), DAY 4): 9 percentage of patients
Burning ([1]; Side B (control PDT), DAY 4): 26, 26 percentage of patients
Crusting ([1]; Side B (control PDT), DAY 4): 35, 35 percentage of patients
Itching ([1]; Side B (control PDT), DAY 4): 65, 65 percentage of patients
Open sores ([1]; Side B (control PDT), DAY 4): 4, 4 percentage of patients
Peeling ([1]; Side B (control PDT), DAY 4): 52 percentage of patients
Redness ([1]; Side B (control PDT), DAY 4): 74 percentage of patients
Stinging ([1]; Side B (control PDT), DAY 4): 35, 35 percentage of patients
Swelling ([1]; Side B (control PDT), DAY 4): 0, 0 percentage of patients
Pain Score Mean (0-10 visual-analog scale) ([1]; Side B (control PDT), DAY 4): 1.0, 1.0
Major inflammatory parameters, Side A versus Side B ([1]; first 4 days post-treatment): no noticeable differences
Pain score (0-to-10 VAS) during illumination ([2]; SIDE A (test PDT), 10 min during illumination, 30 min test PDT cohort): 0 (3×) and 2 and 3 and 1
Pain score (0-to-10 VAS) during illumination ([2]; SIDE A (test PDT), 10 min during illumination, 45 min test PDT cohort): 0 (5×) and 1 (3×)
Pain score (0-to-10 VAS) during illumination ([2]; SIDE A (test PDT), 10 min during illumination, 60 min test PDT cohort): 0
Pain score (0-to-10 VAS) during illumination ([2]; SIDE A (test PDT), 20 min during illumination, 30 min test PDT cohort): 0 (2×) and 2 and 5 and 1 (2×)
Pain score (0-to-10 VAS) during illumination ([2]; SIDE A (test PDT), 20 min during illumination, 45 min test PDT cohort): 0 (6×) and 1 (2×)
Pain score (0-to-10 VAS) during illumination ([2]; SIDE A (test PDT), 20 min during illumination, 60 min test PDT cohort): 0
Pain score (0-to-10 VAS) during illumination ([2]; SIDE A (test PDT), 30 min during illumination, 30 min test PDT cohort): 0 (2×) and 2 and 6 and 1 (2×)
Pain score (0-to-10 VAS) during illumination ([2]; SIDE A (test PDT), 30 min during illumination, 45 min test PDT cohort): 0 (7×) and 1
Pain score (0-to-10 VAS) during illumination ([2]; SIDE A (test PDT), 30 min during illumination, 60 min test PDT cohort): 0
Pain score (0-to-10 VAS) during illumination ([2]; SIDE A (test PDT), 40 min during illumination, 45 min test PDT cohort): 0 (6×) and 1 (2×)
Pain score (0-to-10 VAS) during illumination ([2]; SIDE A (test PDT), 40 min during illumination, 60 min test PDT cohort): 0
Pain score (0-to-10 VAS) during illumination ([2]; SIDE A (test PDT), 50 min during illumination): 0
Pain score (0-to-10 VAS) during illumination, Mean ([2]; SIDE A (test PDT), 30 min test PDT cohort): 0.0 (3×) and 2.0 and 4.7 and 0.7 and 1.0
Pain score (0-to-10 VAS) during illumination, Mean ([2]; SIDE A (test PDT), 45 min test PDT cohort): 0.0 (4×) and 0.3 (2×) and 1.0 and 0.5
Pain score (0-to-10 VAS) during illumination, Mean ([2]; SIDE A (test PDT), 60 min test PDT cohort): 0.0 (5×) and 0.8 (2×) and 0.2
Pain score (0-to-10 VAS) during illumination ([2]; SIDE B (control PDT), 5 min during illumination, 30 min test PDT cohort): 2 and 10 (2×) and 4 and 5 and 3
Pain score (0-to-10 VAS) during illumination ([2]; SIDE B (control PDT), 5 min during illumination, 45 min test PDT cohort): 8 and 4 (3×) and 3 and 2 and 5 and 1
Pain score (0-to-10 VAS) during illumination ([2]; SIDE B (control PDT), 5 min during illumination, 60 min test PDT cohort): 1
Pain score (0-to-10 VAS) during illumination ([2]; SIDE B (control PDT), 10 min during illumination, 30 min test PDT cohort): 1 and 7 and 5 and 4 and 3 (2×)
Pain score (0-to-10 VAS) during illumination ([2]; SIDE B (control PDT), 10 min during illumination, 45 min test PDT cohort): 3 (3×) and 2 and 4 and 5 (2×) and 1
Pain score (0-to-10 VAS) during illumination ([2]; SIDE B (control PDT), 10 min during illumination, 60 min test PDT cohort): 1
Pain score (0-to-10 VAS) during illumination ([2]; SIDE B (control PDT), 15 min during illumination, 30 min test PDT cohort): 0 and 5 and 6 and 4 and 1 and 3
Pain score (0-to-10 VAS) during illumination ([2]; SIDE B (control PDT), 15 min during illumination, 45 min test PDT cohort): 0 and 2 (3×) and 1 and 3 and 4 and 5
Pain score (0-to-10 VAS) during illumination ([2]; SIDE B (control PDT), 15 min during illumination, 60 min test PDT cohort): 0
Pain score (0-to-10 VAS) during illumination, Mean ([2]; SIDE B (control PDT), 30 min test PDT cohort): 1.0 and 7.3 and 7.0 and 4.0 and 3.0 (2×) and 4.7
Pain score (0-to-10 VAS) during illumination, Mean ([2]; SIDE B (control PDT), 45 min test PDT cohort): 3.7 (2×) and 3.0 and 2.7 and 1.7 and 4.3 and 5.0 and 1.3
Pain score (0-to-10 VAS) during illumination, Mean ([2]; SIDE B (control PDT), 60 min test PDT cohort): 0.7 and 6.3 and 4.3 and 1.0 and 3.7 (2×) and 6.7 and 0.3
Mean VAS pain score during illumination ([2]; Side A (test PDT)): 0.52
Mean VAS pain score during illumination ([2]; Side B (control PDT)): 3.57
Pain during illumination, test PDT side versus control side ([2]; substantially no pre-illumination gap versus 1 hour gap): drastically reduced
Spotty erythema (inflamed AK lesions), Side A versus Side B [3]: approximately equal on Side A and Side B
Clinical response, Difference (A − B) ([4]; Face, 30 min cohort): −1.7%
Clinical response (% reduction in AK counts at 3 months) ([4]; Face, 30 min cohort, Side A (test PDT, 30 min blue light)): 55.4%
Clinical response (% reduction in AK counts at 3 months) ([4]; Face, 30 min cohort, Side B (control PDT)): 57.1%
Clinical response, Difference (A − B) ([4]; Face, 45 min cohort): 1.1%
Clinical response (% reduction in AK counts at 3 months) ([4]; Face, 45 min cohort, Side A (test PDT, 45 min blue light)): 59.8%
Clinical response (% reduction in AK counts at 3 months) ([4]; Face, 45 min cohort, Side B (control PDT)): 58.6%
Clinical response, Difference (A − B) ([4]; Face, 60 min cohort): −3.8%
Clinical response (% reduction in AK counts at 3 months) ([4]; Face, 60 min cohort, Side A (test PDT, 60 min blue light)): 57.5%
Clinical response (% reduction in AK counts at 3 months) ([4]; Face, 60 min cohort, Side B (control PDT)): 61.2%
Clinical response, Difference (A − B) ([4]; Face, all patients): −1.4%
Clinical response (% reduction in AK counts at 3 months) ([4]; Face, all patients, Side A (test PDT, substantially no pre-illumination gap)): 57.7%
Clinical response (% reduction in AK counts at 3 months) ([4]; Face, all patients, Side B (control PDT, 1 hr pre-illumination gap, blue light 1000 sec)): 59.1%
Clinical response, Difference (A − B) ([4]; Scalp, 30 min cohort): −1.2%
Clinical response (% reduction in AK counts at 3 months) ([4]; Scalp, 30 min cohort, Side A (test PDT, 30 min blue light)): 44.8%
Clinical response (% reduction in AK counts at 3 months) ([4]; Scalp, 30 min cohort, Side B (control PDT)): 46.0%
Clinical response, Difference (A − B) ([4]; Scalp, 45 min cohort): 3%
Clinical response (% reduction in AK counts at 3 months) ([4]; Scalp, 45 min cohort, Side A (test PDT, 45 min blue light)): 41.2%
Clinical response (% reduction in AK counts at 3 months) ([4]; Scalp, 45 min cohort, Side B (control PDT)): 38.2%
Clinical response, Difference (A − B) ([4]; Scalp, 60 min cohort): 3.7%
Clinical response (% reduction in AK counts at 3 months) ([4]; Scalp, 60 min cohort, Side A (test PDT, 60 min blue light)): 45.2%
Clinical response (% reduction in AK counts at 3 months) ([4]; Scalp, 60 min cohort, Side B (control PDT)): 41.5%
Clinical response, Difference (A − B) ([4]; Scalp, all patients): 1.9%
Clinical response (% reduction in AK counts at 3 months) ([4]; Scalp, all patients, Side A (test PDT, substantially no pre-illumination gap)): 43.8%
Clinical response (% reduction in AK counts at 3 months) ([4]; Scalp, all patients, Side B (control PDT, 1 hr pre-illumination gap, blue light 1000 sec)): 41.9%
Clinical efficacy (lesion clearance), test PDT versus control PDT ([4]; face and scalp, 3 months, test of non-inferiority): nearly identical on both sides of the face and scalp; also recorded: statistically indistinguishable
